Experiments:
[1] = tested on: ACHN cells or HT-29 cells; assay: Cell cycle analysis (flow cytometry, CycleTEST PLUS); type: cell-based; conditions: test substance less than 10 μM, 24 hrs, compared to DMSO, n=2, read-out: CELL RATIO OF G0/G1 PHASE
Description: ACHN cells or HT-29 cells were cultured in a 6 well plate at 2.5×10^5 cells/1.8 mL/well for 24 hrs, then a test substance (less than 10 μM) dissolved in DMSO was added. After 24 hrs, cells were detached using trypsin-EDTA and the DNA content of single cell was analyzed by flow cytometry method using a CycleTEST PLUS (BECKTON DICKINSON) kit, and the proportion of the cells in the G0/G1 phase·S phase·G2/M phase was calculated. As a control, DMSO was used and the test was performed with n=2.

[2] = tested on: colorectal cancer cell line HT-29 cells; assay: Growth inhibitory effect against cancer cell lines (3H-thymidine uptake), HT-29; type: cell-based; conditions: Homo sapiens, HT-29, inhibition of 3H-thymidine uptake; test substance 18 hrs, then 3H-thymidine 6 hrs; triplicate
Outline: (§1)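 IC50 = concentration reducing ^3H-thymidine incorporation to 50% of DMSO control, measured in triplicate. Compound added 24 hrs after plating (1.0×10^4 cells/well); label (0.25 μCi/well) given after 18 hrs of treatment, followed by 6 hrs further culture and scintillation counting of harvested cells.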

[3] = tested on: Renal cancer cell line ACHN cell; assay: Growth inhibitory effect against cancer cell lines (3H-thymidine uptake), ACHN; type: cell-based; conditions: Homo sapiens, ACHN
Outline: as §1

HT-29 cells = assay: Evaluation on the nude-mouse xenograft model; type: in vivo, mouse (Balb/c-nu/nu); conditions: HT-29, po, 240 h, 30 mg/kg orally twice a day for 10 days, tumor volume, treated vs vehicle group, n=6-8, read-out: T/C(%)
Description: HT-29 cells (5.0×10^6 cells/100 μL/head, suspended in HBSS (Hanks' solution)) in the logarithmic growth phase were implanted in a mouse (Balb/c-nu/nu) at the right lateral abdomen under ether anesthesia. After 5 days of implantation, the long diameter and short diameter of the tumor were measured, and the mice were divided into groups such that each group has an equivalent average tumor volume. For grouping, a grouping soft (general grouping system (Visions) was used. From the next day of the grouping, a test substance suspended in 0.5% MC (methyl cellulose) was repeatedly orally administered twice a day for 10 days (30 mg/kg). The tumor volume was measured twice a week and used as an index of antitumor activity. As a control, 0.5% MC was used and the test was performed with n=6-8.
The index (T/C (%)) of the antitumor activity was calculated according to the following formula.
T/C(%)=(The average tumor volume of the group treated with a test substance)/(The average tumor volume of the Vehicle group)×100
The tumor volume was calculated according to the following formula.
Tumor volume(mm^3)=L×W×W/2
(L: long diameter (mm) of tumor, W: short diameter (mm) of tumor)

p27 protein = p27 protein induction test (Western blotting); type: cell-based; conditions: test substance (0.1 1M), 24 hrs, ACHN cells or HT-29 cells, compared to DMSO, n=2
Outline: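 p27 level taken as anti-p27 band density by densitometry, mean of n=2, with DMSO as control. Samples loaded at amount equivalent to 10 μg BSA. Cells were ACHN or HT-29, exposed 24 h to […] test substance after 24 h pre-culture.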

p15 protein = assay: Evaluation of p15 induction activity (Western blotting); type: cell-based; conditions: test substance 0.1 μM, 24 hrs, ACHN cells or HT-29 cells, compared to DMSO, n=2
Outline: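 p15 protein quantified by densitometry of anti-p15 Western blots (10 μg protein per lane, mean of n=2). Samples came from HT-29 or ACHN cells given 0.1 μM compound for 24 h after 24 h plating, with DMSO as control.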

[4] = tested on: mouse (DBA/1) collagen arthritis; conditions: 17 days after boost, 1 mg/kg oral once a day for 38 days; medium group 2.2; p<0.001; n=16
TNF-α or IL-6 = assay: Evaluation on inflammatory cytokine production (LPS-stimulated PBMC); type: cell-based; conditions: human PBMC stimulated with LPS
B-Raf and MEK1 = B-Raf and MEK1 (Homo sapiens, UniProt Q02750); assay: MEK enzyme inhibitory activity, B-Raf and MEK1 system; type: biochemical; conditions: 30° C., 20 min, [γ-32P]-ATP; average of two or three tests
Description: (§2) To an evaluation system where Raf (B-Raf or c-Raf) and MEK (MEK1 or MEK2) were mixed, or MEK (MEK1 or MEK2) and ERK2 were mixed was added a test substance dissolved in DMSO, and an ATP solution containing [γ-32P]-ATP was added to start the enzyme reaction. After reacting at 30° C. for 20 min, the reaction mixture was subjected to SDS-PAGE (sodium dodecylsulfate-polyacrylamide gel electrophoresis) and radioactivity of phosphorylated MEK or ERK2 was measured by Bio Imaging Analyzer (BAS2000, Fuji photo film).

MEK1 and ERK2 = MEK1 and ERK2 (Homo sapiens, UniProt Q02750); assay: MEK enzyme inhibitory activity, MEK1 and ERK2 system; type: biochemical; conditions: 30° C., 20 min, [γ-32P]-ATP; average of two or three tests
Description: as §2

MEK2 and ERK2 = MEK2 and ERK2 (Homo sapiens, UniProt P36507); assay: MEK enzyme inhibitory activity, MEK2 and ERK2 system; type: biochemical; conditions: 30° C., 20 min, [γ-32P]-ATP; average of two or three tests
Description: as §2

c-Raf and MEK2 = c-Raf and MEK2 (Homo sapiens, UniProt P36507); assay: MEK enzyme inhibitory activity, c-Raf and MEK2 system; type: biochemical; conditions: 30° C., 20 min, [γ-32P]-ATP; average of two or three tests
Description: as §2

B-Raf and MEK2 = B-Raf and MEK2 (Homo sapiens, UniProt P36507); assay: MEK enzyme inhibitory activity, B-Raf and MEK2 system; type: biochemical; conditions: 30° C., 20 min, [γ-32P]-ATP; average of two or three tests
Description: as §2

MEK2 and ERK2, sequence (P36507 whole entry): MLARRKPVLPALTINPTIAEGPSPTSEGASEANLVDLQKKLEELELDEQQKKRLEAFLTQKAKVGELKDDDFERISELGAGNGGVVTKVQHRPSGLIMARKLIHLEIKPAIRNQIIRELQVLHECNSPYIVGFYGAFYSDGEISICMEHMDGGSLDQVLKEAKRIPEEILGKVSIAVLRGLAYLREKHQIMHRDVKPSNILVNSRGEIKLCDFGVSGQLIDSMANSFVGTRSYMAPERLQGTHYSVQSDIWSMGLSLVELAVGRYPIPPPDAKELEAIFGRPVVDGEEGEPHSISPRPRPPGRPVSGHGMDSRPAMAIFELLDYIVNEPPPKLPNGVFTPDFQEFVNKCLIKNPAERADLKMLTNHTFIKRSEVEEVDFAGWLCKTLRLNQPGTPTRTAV
B-Raf and MEK2, sequence (P36507 whole entry): as above
c-Raf and MEK2, sequence (P36507 whole entry): as above
B-Raf and MEK1, sequence (Q02750 whole entry): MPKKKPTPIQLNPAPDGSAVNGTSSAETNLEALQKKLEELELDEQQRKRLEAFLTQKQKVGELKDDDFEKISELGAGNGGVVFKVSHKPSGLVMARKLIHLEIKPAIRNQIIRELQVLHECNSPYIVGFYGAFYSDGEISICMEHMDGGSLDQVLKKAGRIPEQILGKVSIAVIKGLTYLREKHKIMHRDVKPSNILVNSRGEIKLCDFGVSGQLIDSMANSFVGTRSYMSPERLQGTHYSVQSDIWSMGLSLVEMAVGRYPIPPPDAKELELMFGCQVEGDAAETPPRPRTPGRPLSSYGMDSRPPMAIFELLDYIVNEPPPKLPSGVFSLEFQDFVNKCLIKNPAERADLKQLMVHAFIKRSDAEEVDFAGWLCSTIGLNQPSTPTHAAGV
MEK1 and ERK2, sequence (Q02750 whole entry): as above

Structure (SMILES) | fold induction at up to 10 µM [1] | IC50 [2] [nM] | IC50 [3] [nM] | response vs control in vivo at 30 mg/kg (HT-29 cells) [%] | fold induction at 0.1 µM (p27 protein) | fold induction at 0.1 µM (p15 protein) | arthritis score [4] | production of TNF-α or IL-6 (TNF-α or IL-6) | IC50 of various enzyme reaction system, B-Raf MEK1 (B-Raf and MEK1) [nM] | IC50 of various enzyme reaction system, MEK1 ERK2 (MEK1 and ERK2) [nM] | IC50 of various enzyme reaction system, MEK2 ERK2 (MEK2 and ERK2) [nM] | IC50 of various enzyme reaction system, c-Raf MEK2 (c-Raf and MEK2) [nM] | IC50 of various enzyme reaction system, B-Raf MEK2 (B-Raf and MEK2) [nM]
Cc1c(=O)n(C)c(Nc2ccc(I)cc2F)c2c(=O)n(C3CC3)c(=O)n(-c3ccc(NS(C)(=O)=O)cc3)c12 [Example 4-70] | ≥ 1.2 | < 10 | 10 to 100 | 31 | ≥ 1.5 | ≥ 1.5 |  |  |  |  |  |  | 
CC(=O)Nc1cccc(-n2c(=O)n(C3CC3)c(=O)c3c(Nc4ccc(I)cc4F)n(C)c(=O)c(C)c32)c1.CC(=O)O [N-{3-[3-Cyclopropyl-5-(2-fluoro-4-iodo-phenylamino)-6,8-dimethyl-2,4,7-trioxo-3,4,6,7-tetrahydro-2H-pyrido[4,3-d]pyrimidin-1-yl]-phenyl}-acetamide Acetic Acid Solvate] |  |  |  |  |  |  | 0.57 |  |  |  |  |  | 
Cc1c(=O)n(C)c(Nc2ccc(I)cc2F)c2c(=O)n(C3CC3)c(=O)n(-c3cccc(NS(N)(=O)=O)c3)c12 [Example 4-54] |  | < 10 | < 10 | 11 | ≥ 1.5 | ≥ 1.5 |  |  |  |  |  |  | 
C#Cc1ccc(Nc2c3c(=O)n(C)c(=O)n(-c4cccc(NS(C)(=O)=O)c4)c3c(C)c(=O)n2C)c(F)c1 [Example 4-49] |  | < 10 | 10 to 100 | 35 | ≥ 1.5 | ≥ 1.5 |  |  |  |  |  |  | 
CC(=O)Nc1cccc(-n2c(=O)n(C3CC3)c(=O)c3c(Nc4ccc(I)cc4F)n(C)c(=O)c(C)c32)c1 [Example 4-1, N-{3-[3-cyclopropyl-5-(2-fluoro-4-iodophenylamino)-6,8-dimethyl-2,4,7-trioxo-3,4,6,7-tetrahydro-2H-pyrido[4,3-d]pyrimidin-1-yl]-phenyl}-acetamide] |  | < 10 | < 10 | 3 |  |  |  | suppressed |  |  |  |  | 
Cc1c(=O)n(C)c(Nc2ccc(I)cc2F)c2c(=O)n(C)c(=O)n(-c3cccc(NS(C)(=O)=O)c3)c12 [Example 4-16, N-{3-[5-(2-fluoro-4-iodophenylamino)-3,6,8-trimethyl-2,4,7-trioxo-3,4,6,7-tetrahydro-2H-pyrido[4,3-d]pyrimidin-1-yl]phenyl}methanesulfonamide] | ≥ 1.2 | < 10 | < 10 | 10 | ≥ 1.5 | ≥ 1.5 |  | suppressed |  |  |  |  | 
Cn1c(=O)cc(Nc2ccc(I)cc2F)c2c(=O)n(C3CC3)c(=O)n(-c3cccc(NS(C)(=O)=O)c3)c21 [Example 1-257] |  | < 10 | < 10 | 26 | ≥ 1.5 |  |  |  | 6 | 1300 | 1600 | 7.8 | 18.8
C#Cc1ccc(Nc2c3c(=O)n(C4CC4)c(=O)n(-c4cccc(NS(C)(=O)=O)c4)c3c(C)c(=O)n2C)c(F)c1 [Example 3-8] |  | < 10 | 10 to 100 | 27 |  | ≥ 1.5 |  |  |  |  |  |  | 
CC(=O)Nc1cccc(-n2c(=O)n(C)c(=O)c3c(Nc4ccc(I)cc4F)n(C)c(=O)c(C)c32)c1 [Example 4-15] |  | < 10 | 10 to 100 | 31 | ≥ 1.5 | ≥ 1.5 |  |  |  |  |  |  | 

Source: patent publication US20180273531A1, “PYRIMIDINE COMPOUND AND MEDICAL USE THEREOF” (Japan Tobacco Inc., priority 2004, published 2018)
